The test addresses bacterial protein synthesis (S30 extract from quinolone-succeptable Streptococcus pneumoniae ATCC 46919). Description: Translation assay, firefly luciferase reporter system with S30 Streptococcus pneumoniae extract. The following applies: luciferase mRNA, read-out: IC50, concentration causing 50% inhibition of bacterial protein synthesis. Format: biochemical. On the procedure: Bacterial protein synthesis inhibitory activity of representative compounds of this invention having formula (I) and the commercially-available antibacterials in TABLE 2 was determined by translation assays using the firefly luciferase reporter system described by Murray et al., (2001), “Staphylococcus aureus Cell Extract Transcription-Translation Assay: Firefly Luciferase Reporter System for Evaluating Protein Translation Inhibitors,” Antimicrob. Agents Chemother. 45(6): 1900-1904, but replacing the Staphylococcus aureus S30 extract described therein with S30 Streptococcus pneumoniae extract from quinolone-succeptable Streptococcus pneumoniae ATCC 46919, and replacing plasmid coding for the luciferase gene with mRNA (encoding produced by in vitro transcription from the plasmid pAS10rbs3) which encoded the luciferase gene with an upstream Streptococcus pneumoniae promoter and Shine-Dalgarno site.

The record followed here is patent US7737159B2, “Antibacterial compounds” (Abbott Laboratories, priority 2004, dated 2010).

As to `CC(=O)NC[C@H]1CN(c2ccc(N3CCOCC3)c(F)c2)C(=O)O1` [Linezolid], the IC50 was approximately 3 µM.
